Data taken from PubChem BioAssay (NCI).
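Step 1: Grow cells in 96-well plates. Step 2: Expose to compound for 48 hours at 5 concentrations. Step 3: Interpolate endpoints linearly; if unreached, use highest concentration. GI50 = concentration required for 50% inhibition of growth. At the TGI there is no net growth.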

What was measured:
Test in all cases: NCI anticancer screen, dose series, 48 h
EKVX NSCLC = system: EKVX NSCLC
MDA-MB-231 breast = system: MDA-MB-231 breast
NCI/ADR-RES ovarian = system: NCI/ADR-RES ovarian
SF-539 CNS = system: SF-539 CNS
HT29 colon = system: HT29 colon
OVCAR-4 ovarian = system: OVCAR-4 ovarian
MALME-3M melanoma = system: MALME-3M melanoma
RPMI-8226 leukemia = system: RPMI-8226 leukemia
IGROV1 ovarian = system: IGROV1 ovarian
HS 578T breast = system: HS 578T breast

SMILES | GI50 (EKVX NSCLC) | TGI (EKVX NSCLC) | GI50 (MDA-MB-231 breast) | TGI (MDA-MB-231 breast) | GI50 (NCI/ADR-RES ovarian) | TGI (NCI/ADR-RES ovarian) | GI50 (SF-539 CNS) | TGI (SF-539 CNS) | GI50 (HT29 colon) | TGI (HT29 colon) | GI50 (OVCAR-4 ovarian) | TGI (OVCAR-4 ovarian) | GI50 (MALME-3M melanoma) | TGI (MALME-3M melanoma) | GI50 (RPMI-8226 leukemia) | TGI (RPMI-8226 leukemia) | GI50 (IGROV1 ovarian) | TGI (IGROV1 ovarian) | GI50 (HS 578T breast) | TGI (HS 578T breast)
Cc1cc(N)cc(C)c1-c1c(Br)cc(N)cc1Br | 5.65 µM | > 100 µM | 4.1 µM | 26.3 µM | 2.23 µM | 5.57 µM | 2.89 µM | 11.1 µM | 2.82 µM | 12 µM | 5.93 µM | > 100 µM | 10.5 µM | 54.3 µM | 3.04 µM | 10.4 µM | 4.32 µM | > 100 µM | – | –
Cn1cnc([N+](=O)[O-])c1Sc1nc2ccc([N+](=O)[O-])cc2[nH]1 | – | 46.7 µM | – | – | – | – | – | 44 µM | – | > 100 µM | – | > 100 µM | – | – | – | 67.5 µM | – | 58.6 µM | – | –
CC(=O)C(C=O)C(C)=O.CC(=O)CC(C)=O.CC(=O)CC(C)=O.[Ru] | 18.1 µM | 95.9 µM | 15.7 µM | 68.8 µM | 21.8 µM | 95 µM | 3.8 µM | 26.3 µM | 21 µM | > 100 µM | 19.5 µM | > 100 µM | 24.6 µM | 96.9 µM | – | – | 20.4 µM | 73.3 µM | 0.0635 µM | 4.2 µM
NC(=O)c1ncn(Cc2ccccc2)c1CNC(N)=S | – | > 100 µM | – | – | – | – | – | > 100 µM | – | > 100 µM | – | > 100 µM | – | – | – | > 100 µM | – | > 100 µM | – | –
O=C1CC[C@@H](NC(=O)Cc2ccccc2)C(=O)N1 | – | > 100 µM | – | – | – | – | – | > 100 µM | – | > 100 µM | – | > 100 µM | – | > 100 µM | – | > 100 µM | – | > 100 µM | – | –
Nc1nc2ncn(CC(O)COC(=O)c3ccccc3)c2c(=O)[nH]1 (stereo unspecified) | – | > 100 µM | – | – | – | – | – | > 100 µM | – | > 100 µM | – | > 100 µM | – | > 100 µM | – | > 100 µM | – | > 100 µM | – | –
N#Cc1c(N)c(C#N)c2c(c1-c1ccc(Cl)cc1)COc1ccc(F)cc1-2 | 12.4 µM | > 50 µM | 7.71 µM | 45.7 µM | 30.6 µM | > 50 µM | 28.2 µM | > 50 µM | 49.7 µM | > 50 µM | > 50 µM | > 50 µM | – | – | 19 µM | > 50 µM | 6.24 µM | 30.5 µM | – | –
ClCCCCOC1CCCCO1 (stereo unspecified) | – | > 100 µM | – | – | – | – | – | > 100 µM | – | > 100 µM | – | > 100 µM | – | > 100 µM | – | – | – | > 100 µM | – | –
COc1cc(Cn2c(SCC(=O)Nc3ccc(Cl)cc3)nc3ccccc3c2=O)cc(OC)c1OC | – | – | 3.08 µM | 13 µM | 8.38 µM | 27.6 µM | 2.29 µM | 6.5 µM | – | – | 3.01 µM | 13.9 µM | – | – | 22.9 µM | > 100 µM | 19 µM | 55.8 µM | 3.95 µM | 40.3 µM
COc1cc(NC(C)CCCN2C(=O)c3ccccc3C2=O)c2ncccc2c1OC (stereo unspecified) | 29.7 µM | > 100 µM | 31.8 µM | > 100 µM | 24 µM | > 100 µM | 78 µM | > 100 µM | 36.3 µM | > 100 µM | 11.8 µM | > 100 µM | 22.9 µM | 58.3 µM | – | – | 18.6 µM | > 100 µM | 24.5 µM | 97.3 µM
